Reference: ChEMBL document CHEMBL3217532, “New analyses of MIC90 data to aid antibacterial drug discovery” (2011)
Converted amounts (≈) assume the structure as drawn.

Each molecule was assayed on Pseudomonas aeruginosa (assay: Antimicrobial activity against Pseudomonas aeruginosa 1611-09).
Assay type: functional

Row | Structure (SMILES) | MIC90
1 | CC(C)(O/N=C(\C(=O)N[C@H]1CN(C(=O)NS(=O)(=O)n2nc(-c3cc(=O)c(O)c[nH]3)n(C[C@@H](O)CO)c2=O)C1=O)c1csc(N)n1)C(=O)O | 0.125 µg/mL (≈ 0.175 µM)

Each molecule was assayed on Pseudomonas aeruginosa (assay: Antimicrobial activity against Pseudomonas aeruginosa 1567-05).
Assay type: functional

Row | Structure (SMILES) | MIC90
2 | CC(C)(O/N=C(\C(=O)N[C@H]1CN(C(=O)NS(=O)(=O)n2nc(-c3cc(=O)c(O)c[nH]3)n(C[C@@H](O)CO)c2=O)C1=O)c1csc(N)n1)C(=O)O | 0.125 µg/mL (≈ 0.175 µM)

What follows are molecules tested on Pseudomonas aeruginosa (assay: Antimicrobial activity against Pseudomonas aeruginosa 1564-05).
Assay type: functional

Row | Structure (SMILES) | MIC90
3 | CC(C)(O/N=C(\C(=O)N[C@H]1CN(C(=O)NS(=O)(=O)n2nc(-c3cc(=O)c(O)c[nH]3)n(C[C@@H](O)CO)c2=O)C1=O)c1csc(N)n1)C(=O)O | 0.125 µg/mL (≈ 0.175 µM)

What follows are molecules tested on Pseudomonas aeruginosa (assay: Antimicrobial activity against Pseudomonas aeruginosa 1765-00).
Assay type: functional

Row | Structure (SMILES) | MIC90
4 | CC(C)(O/N=C(\C(=O)N[C@H]1CN(C(=O)NS(=O)(=O)n2nc(-c3cc(=O)c(O)c[nH]3)n(C[C@@H](O)CO)c2=O)C1=O)c1csc(N)n1)C(=O)O | 0.5 µg/mL (≈ 0.7 µM)

Each molecule was assayed on Pseudomonas aeruginosa (assay: Antimicrobial activity against Pseudomonas aeruginosa PA-4993).
Assay type: functional

Row | Structure (SMILES) | MIC90
5 | CC(C)(O/N=C(\C(=O)N[C@H]1CN(C(=O)NS(=O)(=O)n2nc(-c3cc(=O)c(O)c[nH]3)n(C[C@@H](O)CO)c2=O)C1=O)c1csc(N)n1)C(=O)O | 0.125 µg/mL (≈ 0.175 µM)

Each molecule was assayed on Pseudomonas aeruginosa (assay: Antimicrobial activity against Pseudomonas aeruginosa 1952-00).
Assay type: functional

Row | Structure (SMILES) | MIC90
6 | CC(C)(O/N=C(\C(=O)N[C@H]1CN(C(=O)NS(=O)(=O)n2nc(-c3cc(=O)c(O)c[nH]3)n(C[C@@H](O)CO)c2=O)C1=O)c1csc(N)n1)C(=O)O | 0.125 µg/mL (≈ 0.175 µM)

What follows are molecules tested on Pseudomonas aeruginosa (assay: Antimicrobial activity against Pseudomonas aeruginosa PA-4991).
Assay type: functional

Row | Structure (SMILES) | MIC90
7 | CC(C)(O/N=C(\C(=O)N[C@H]1CN(C(=O)NS(=O)(=O)n2nc(-c3cc(=O)c(O)c[nH]3)n(C[C@@H](O)CO)c2=O)C1=O)c1csc(N)n1)C(=O)O | 0.25 µg/mL (≈ 0.35 µM)

The molecules below were run on Pseudomonas aeruginosa (assay: Antimicrobial activity against Pseudomonas aeruginosa 1513-08).
Assay type: functional

Row | Structure (SMILES) | MIC90
8 | CC(C)(O/N=C(\C(=O)N[C@H]1CN(C(=O)NS(=O)(=O)n2nc(-c3cc(=O)c(O)c[nH]3)n(C[C@@H](O)CO)c2=O)C1=O)c1csc(N)n1)C(=O)O | 0.5 µg/mL (≈ 0.7 µM)

These molecules were tested on Pseudomonas aeruginosa (assay: Antimicrobial activity against Pseudomonas aeruginosa 1767-00).
Assay type: functional

Row | Structure (SMILES) | MIC90
9 | CC(C)(O/N=C(\C(=O)N[C@H]1CN(C(=O)NS(=O)(=O)n2nc(-c3cc(=O)c(O)c[nH]3)n(C[C@@H](O)CO)c2=O)C1=O)c1csc(N)n1)C(=O)O | 0.125 µg/mL (≈ 0.175 µM)

What follows are molecules tested on Pseudomonas aeruginosa (assay: Antimicrobial activity against Pseudomonas aeruginosa PA-4997).
Assay type: functional

Row | Structure (SMILES) | MIC90
10 | CC(C)(O/N=C(\C(=O)N[C@H]1CN(C(=O)NS(=O)(=O)n2nc(-c3cc(=O)c(O)c[nH]3)n(C[C@@H](O)CO)c2=O)C1=O)c1csc(N)n1)C(=O)O | 0.25 µg/mL (≈ 0.35 µM)

Each molecule was assayed on Pseudomonas aeruginosa (assay: Antimicrobial activity against Pseudomonas aeruginosa 1752-00).
Assay type: functional

Row | Structure (SMILES) | MIC90
11 | CC(C)(O/N=C(\C(=O)N[C@H]1CN(C(=O)NS(=O)(=O)n2nc(-c3cc(=O)c(O)c[nH]3)n(C[C@@H](O)CO)c2=O)C1=O)c1csc(N)n1)C(=O)O | 0.5 µg/mL (≈ 0.7 µM)

These molecules were tested on Pseudomonas aeruginosa (assay: Antimicrobial activity against Pseudomonas aeruginosa PA-4999).
Assay type: functional

Row | Structure (SMILES) | MIC90
12 | CC(C)(O/N=C(\C(=O)N[C@H]1CN(C(=O)NS(=O)(=O)n2nc(-c3cc(=O)c(O)c[nH]3)n(C[C@@H](O)CO)c2=O)C1=O)c1csc(N)n1)C(=O)O | 0.25 µg/mL (≈ 0.35 µM)

What follows are molecules tested on Pseudomonas aeruginosa (assay: Antimicrobial activity against Pseudomonas aeruginosa PA-75).
Assay type: functional

Row | Structure (SMILES) | MIC90
13 | CC(C)(O/N=C(\C(=O)N[C@H]1CN(C(=O)NS(=O)(=O)n2nc(-c3cc(=O)c(O)c[nH]3)n(C[C@@H](O)CO)c2=O)C1=O)c1csc(N)n1)C(=O)O | 0.25 µg/mL (≈ 0.35 µM)

What follows are molecules tested on Pseudomonas aeruginosa (assay: Antimicrobial activity against Pseudomonas aeruginosa 1515-08).
Assay type: functional

Row | Structure (SMILES) | MIC90
14 | CC(C)(O/N=C(\C(=O)N[C@H]1CN(C(=O)NS(=O)(=O)n2nc(-c3cc(=O)c(O)c[nH]3)n(C[C@@H](O)CO)c2=O)C1=O)c1csc(N)n1)C(=O)O | 0.25 µg/mL (≈ 0.35 µM)

Each molecule was assayed on Pseudomonas aeruginosa (assay: Antimicrobial activity against Pseudomonas aeruginosa PA-4624).
Assay type: functional

Row | Structure (SMILES) | MIC90
15 | CC(C)(O/N=C(\C(=O)N[C@H]1CN(C(=O)NS(=O)(=O)n2nc(-c3cc(=O)c(O)c[nH]3)n(C[C@@H](O)CO)c2=O)C1=O)c1csc(N)n1)C(=O)O | 0.25 µg/mL (≈ 0.35 µM)

Each molecule was assayed on Pseudomonas aeruginosa (assay: Antimicrobial activity against Pseudomonas aeruginosa 1569-05).
Assay type: functional

Row | Structure (SMILES) | MIC90
16 | CC(C)(O/N=C(\C(=O)N[C@H]1CN(C(=O)NS(=O)(=O)n2nc(-c3cc(=O)c(O)c[nH]3)n(C[C@@H](O)CO)c2=O)C1=O)c1csc(N)n1)C(=O)O | 0.25 µg/mL (≈ 0.35 µM)

Each molecule was assayed on Pseudomonas aeruginosa (assay: Antimicrobial activity against Pseudomonas aeruginosa 1953-00).
Assay type: functional

Row | Structure (SMILES) | MIC90
17 | CC(C)(O/N=C(\C(=O)N[C@H]1CN(C(=O)NS(=O)(=O)n2nc(-c3cc(=O)c(O)c[nH]3)n(C[C@@H](O)CO)c2=O)C1=O)c1csc(N)n1)C(=O)O | 0.5 µg/mL (≈ 0.7 µM)

The molecules below were run on Pseudomonas aeruginosa (assay: Antimicrobial activity against Pseudomonas aeruginosa 1509-08).
Assay type: functional

Row | Structure (SMILES) | MIC90
18 | CC(C)(O/N=C(\C(=O)N[C@H]1CN(C(=O)NS(=O)(=O)n2nc(-c3cc(=O)c(O)c[nH]3)n(C[C@@H](O)CO)c2=O)C1=O)c1csc(N)n1)C(=O)O | 2 µg/mL (≈ 2.8 µM)

The molecules below were run on Pseudomonas aeruginosa (assay: Antimicrobial activity against Pseudomonas aeruginosa 1614-09).
Assay type: functional

Row | Structure (SMILES) | MIC90
19 | CC(C)(O/N=C(\C(=O)N[C@H]1CN(C(=O)NS(=O)(=O)n2nc(-c3cc(=O)c(O)c[nH]3)n(C[C@@H](O)CO)c2=O)C1=O)c1csc(N)n1)C(=O)O | 0.25 µg/mL (≈ 0.35 µM)

Each molecule was assayed on Pseudomonas aeruginosa (assay: Antimicrobial activity against Pseudomonas aeruginosa 1955-00).
Assay type: functional

Row | Structure (SMILES) | MIC90
20 | CC(C)(O/N=C(\C(=O)N[C@H]1CN(C(=O)NS(=O)(=O)n2nc(-c3cc(=O)c(O)c[nH]3)n(C[C@@H](O)CO)c2=O)C1=O)c1csc(N)n1)C(=O)O | 0.125 µg/mL (≈ 0.175 µM)

What follows are molecules tested on Pseudomonas aeruginosa (assay: Antimicrobial activity against Pseudomonas aeruginosa 1760-00).
Assay type: functional

Row | Structure (SMILES) | MIC90
21 | CC(C)(O/N=C(\C(=O)N[C@H]1CN(C(=O)NS(=O)(=O)n2nc(-c3cc(=O)c(O)c[nH]3)n(C[C@@H](O)CO)c2=O)C1=O)c1csc(N)n1)C(=O)O | 0.25 µg/mL (≈ 0.35 µM)

The molecules below were run on Pseudomonas aeruginosa (assay: Antimicrobial activity against Pseudomonas aeruginosa PA-4990).
Assay type: functional

Row | Structure (SMILES) | MIC90
22 | CC(C)(O/N=C(\C(=O)N[C@H]1CN(C(=O)NS(=O)(=O)n2nc(-c3cc(=O)c(O)c[nH]3)n(C[C@@H](O)CO)c2=O)C1=O)c1csc(N)n1)C(=O)O | 0.125 µg/mL (≈ 0.175 µM)

The molecules below were run on Pseudomonas aeruginosa (assay: Antimicrobial activity against Pseudomonas aeruginosa 1527-08).
Assay type: functional

Row | Structure (SMILES) | MIC90
23 | CC(C)(O/N=C(\C(=O)N[C@H]1CN(C(=O)NS(=O)(=O)n2nc(-c3cc(=O)c(O)c[nH]3)n(C[C@@H](O)CO)c2=O)C1=O)c1csc(N)n1)C(=O)O | 0.25 µg/mL (≈ 0.35 µM)

The molecules below were run on Pseudomonas aeruginosa (assay: Antimicrobial activity against Pseudomonas aeruginosa 1526-08).
Assay type: functional

Row | Structure (SMILES) | MIC90
24 | CC(C)(O/N=C(\C(=O)N[C@H]1CN(C(=O)NS(=O)(=O)n2nc(-c3cc(=O)c(O)c[nH]3)n(C[C@@H](O)CO)c2=O)C1=O)c1csc(N)n1)C(=O)O | 0.5 µg/mL (≈ 0.7 µM)

Each molecule was assayed on Pseudomonas aeruginosa (assay: Antimicrobial activity against Pseudomonas aeruginosa 1521-08).
Assay type: functional

Row | Structure (SMILES) | MIC90
25 | CC(C)(O/N=C(\C(=O)N[C@H]1CN(C(=O)NS(=O)(=O)n2nc(-c3cc(=O)c(O)c[nH]3)n(C[C@@H](O)CO)c2=O)C1=O)c1csc(N)n1)C(=O)O | 0.5 µg/mL (≈ 0.7 µM)
